The values that follow come from patent publication EP0428132A1, “Pradimicin derivatives” (Bristol-Myers Squibb Company, priority 1989, dated 1991).

≈ marks a conversion by molar mass, not a printed value.

Assay in all cases: In vitro antifungal activity, serial agar dilution method (Table 1)
Format in all cases: cell-based

In assay [1] the test system is Sprotricosis schenckii IFO8158. The note with it: Sabouraud dextrose agar (pH 7.0); 28°C for 40 hours; read-out: MIC, Sprotricosis schenckii IFO8158. On the procedure: (§1) The inoculum size was adjusted to 10⁶ cells/ml, and a volume of approximately 0.003 ml of fungal suspension was applied to the surface of the antibiotic containing agar plates with a multiinoculator. After incubation, the lowest concentration of antibiotic causing virtually complete inhibition of fungal growth was determined as the minimum inhibitory concentration (MIC). Table 1. [table]

In assay [2] the test system is Trichophyton mentagrophytes D155. The following applies: Trichophyton mentagrophytes, D155; Sabouraud dextrose agar (pH 7.0); 28°C for 40 hours. Here is the method:
as §1

Assay [3] relates to Aspergillus fumigatus IAM2034. The note with it: Aspergillus fumigatus, IAM2034; Sabouraud dextrose agar (pH 7.0); 28°C for 40 hours. On the procedure: as §1
Assay [4] has as its system Trichophyton mentagrophytes #4329. The note with it: Trichophyton mentagrophytes; Sabouraud dextrose agar (pH 7.0); 28°C for 40 hours. On the procedure: as §1
The test system of another assay is Candida albicans A9540. The following applies: Candida albicans, A9540; Sabouraud dextrose agar (pH 7.0); 28°C for 40 hours. On the procedure: as §1
In assay [5] the test system is Cryptococcus neoformans D49. The following applies: Cryptococcus neoformans, D49; Sabouraud dextrose agar (pH 7.0); 28°C for 40 hours; read-out: MIC, Cryptococcus neoformans D49. On the procedure: as §1
Assay [6] concerns Cryptococcus neoformans IAM4514. The note with it: Cryptococcus neoformans, IAM4514; Sabouraud dextrose agar (pH 7.0); 28°C for 40 hours. On the procedure:
as §1

The test system of another assay is Mucor spinosus IFO5317. The note with it: Sabouraud dextrose agar (pH 7.0), 28°C for 40 hours. Here is the method:
as §1

Assay [7] deals with Fusarium moniliforme A2284. The following applies: Fusarium verticillioides, A2284; Sabouraud dextrose agar (pH 7.0); 28°C for 40 hours. On the procedure:
as §1

Another assay concerns Candida albicans IAM4888. The note with it: Candida albicans, IAM4888; Sabouraud dextrose agar (pH 7.0); 28°C for 40 hours. On the procedure: as §1

For orientation: MIC means the least concentration at which growth counts as inhibited. For `CN[C@@H]1[C@H](O[C@@H]2OC[C@@H](O)[C@H](O)[C@H]2O)[C@@H](O)[C@H](O[C@H]2c3cc(C)c(C(=O)N[C@H](C)C(=O)O)c(O)c3-c3c(cc4c(c3O)C(=O)c3cc(OC)cc(O)c3C4=O)[C@@H]2O)O[C@@H]1C` [Pradimicin A, reference compound], the MIC in assay [1] worked out at 1.6 µg/mL (≈ 1.9 µM); in [2], 6.3 µg/mL (≈ 7.49 µM); in assay [3] it was 3.1 µg/mL (≈ 3.69 µM); in assay [4], 3.1 µg/mL (≈ 3.69 µM); in the assay with Candida albicans A9540 it was 50 µg/mL (≈ 59.5 µM); in assay [5], 0.8 µg/mL (≈ 0.951 µM). The MIC in assay [6] was 0.8 µg/mL (≈ 0.951 µM); with Mucor spinosus IFO5317 (Mucor spinosus, IFO5317), over 100 µg/mL; in [7] it was 3.1 µg/mL (≈ 3.69 µM); with Candida albicans IAM4888, 6.3 µg/mL (≈ 7.49 µM). Besides, in the assay on Mucor spinosus IFO5317 (value in parentheses = Partial Inhibition), the “Partial Inhibition, Mucor spinosus IFO5317” value turned out to be 12.5 µg/mL.
